In patent publication US10947216B2, “Amide compounds and method for making and using” (Rigel Pharmaceuticals, Inc., priority 2016, dated 2021):
Structures can show the parent of a compound that is named as a salt. Where two headings read alike, the source gives them in different places.

Assays:
[1] = test system: IL-23 (p19/p40); assay: IL23-p19 ELISA, dendritic cells (DC differentiated from human PBMC, IFNγ primed), LPS stimulated; assay type: cell-based; conditions: Dendritic cell, human PBMC-derived dendritic cells, 1 h compound pre-incubation, LPS 1 μg/ml 18 hours, 10 pt
Procedure: Compound Screening Using DC Cells
I. Differentiation of PBMC's to DC Cells:
After 2 hours, the media including floating cells was aspirated out carefully and 12 ml of fresh RPMI media (10% FBS) containing GMCSF (100 ng/ml) and IL4 (20 ng/ml) was added, and the flask was kept in a 37° C. incubator for 7 days.
After 3 days, fresh GMCSF (100 ng/ml) and IL4 (20 ng/ml) were added to the flask and the incubation continued. After 7 days, the fully differentiated cells were harvested by spinning down (1200 rpm/5 min) and aspirating the media. The cells were suspended in fresh RPMI media (10% FBS) containing 50 ng/ml IFNγ (1000 U/ml) and then plated (50K/well in 100 μl) onto a white clear bottom 96 well plate and left in a 37° C. incubator for 24 hours.
II. Addition of Compounds:
After 24 hours incubation, 100 μl of RPMI media was added containing 2× concentrated test compound per well to the above cell-culture media (final concentration becomes 1×) and the plates were pre-incubated for 1 hour at 37° C. before stimulating with LPS.
The mixture was shaken and incubated the plates at 37° C. for an additional 18 hours.
155 μl of the supernatant was harvested from each well carefully (without the tip touching the bottom of the well) and to the remaining 50 μl/well of the cell culture plate was added 50 μl of Cell Titer Glo reagent. The mixture was incubated for 1-2 minutes on a shaker and the plate was read for luminescence intensity to determine the compound cytotoxicity. The cell culture supernatant collected above was used to carry out IL23 ELISA (65 μl—Supernatant) and IL10 ELISA (90 μl—Supernatant) as described below.
Human IL-23 (p19/p40) ELISA Protocol (e-Biosciences)
To 10.5 ml PBS add 50 μl of anti-IL23 (p19) was added capture antibody (2.5 μg/ml). The mixture was mixed well and 100 μl of the coating solution was added to each well of the 96 well white plates from Pierce. The wells were covered and incubated overnight at 4° C.
The anti-IL23 (p19)-antibody-coated plates were washed 2× using TBST (use plate washer) and blocked using 200 μl of 0.5% Casein for 1.5-2 hours at room temperature with shaking.
Addition of Supernatant and Detection:
The plates were washed 2× using TBST and the supernatant was transferred (65 μl/well) to the above pre-blocked/IL23(p19)-antibody-coated 96 well plate, and incubated at room temperature for 1.5 hours with shaking.
The plates were washed 4× using TBST (plate washer) and 100 μl/well detection antibody solution prepared from 2 μl of biotin labeled anti-IL-12 (p40/p70) antibody in 11 ml 1% BSA/PBS solution (1-5000 dilution) was added. The plates were incubated for 1 hour with shaking at Room temperature.
Again, the plates were washed 4× with TBST and 100 μl of HRP labeled Streptavidin (R&D Systems) solution (10 μl/10 ml 1% BSA solution) was added, and the plates were incubated at room temperature for another 45 minutes with shaking.
After 45 minutes, the plates were washed with TBST 4× and 100 μl/well Super Signal ELISA Pico Chemiluminescent Substrate from Pierce (3.5 ml A+3.5 ml B+3.5 ml MQ water) was added. The plates were shaken for 1-2 minutes then read on a plate reader.

[2] = test system: IL-23p19; assay: LPS Induced IL23p19 in THP-1 Cells (with IFNγ Primed) Assay; assay type: cell-based, human; conditions: IFNγ (50 ng/mL) primed, 1 hour compound pre-incubation, LPS 1 ug/mL 18 hours, 10 pt, read-out: IL23-p19 ELISA, THP1-IFNy, LPS, 10 pt EC50
Procedure: LPS Induced IL23p19 in THP-1 Cells (with IFNγ Primed) Assay
Method THP-1 Cells Stimulation:
On day 1, 50K/well THP-1 cells were seeded and primed with IFNγ (50 ng/mL) in 384-well plates for about 18 hours in RPMI media with 10% FBS. […] 50 μL/well 2× compound was added to 50 μL/well THP-1 cells (with IFNγ primed) in duplicate in 384 well tissue culture plates. […] Day 3, after stimulation for 18 hours at 37° C., 5% CO2, the assay plate was centrifuged and 70 μL/well supernatant was harvested. IL-23p19 protein in 70 μL/well of supernatant was measured by sandwich ELISA, and 25 μl/well Cell Titer Glo reagent was added to the remaining cells to measure compound toxicity.
Human IL-23p19 Sandwich ELISA:
Maxisorp immuno ELISA plates were pre-coated with 25 μL/well of anti-IL-23p19 capture antibody (2.5 ug/mL) in PBS overnight at room temperature. After washing with 1×PBST, the plates were blocked using 100 μL/well of 1% BSA in PBS for 2 hours at room temperature. The plates were washed three times with 1×PBST and 70 μL/well supernatant were added. The plates were incubated at room temperature for 2 hours with shaking and washed three times with 1×PBST. 25 μL/well of biotin labeled anti-IL-12(p40/p70) detection antibody (100 ng/mL) in PBS with 1% BSA was added and the plates were incubated at room temperature for 2 hours with shaking. After washing three times with 1×PBST, 25 μL/well of streptavidin-HRP (1:200) in PBS with 1% BSA was added and the plates were incubated at room temperature for 20 minutes with shaking. The plates were washed three times with 1×PBST and 25 μL/well of Super Signal ELISA Pico Chemiluminescent Substrate were added. The plates were read with a luminometer, and the chemiluminescence values were entered into Athena (Rigel) for curve fitting, EC50 calculation, and database storage.

[3] = Homo sapiens, THP-1, THP-1 cells

Structure (SMILES)	EC50 [2, 3]	further results
CC(C)Oc1cncc(-c2cccc(C(=O)Nc3cn(C)nc3-c3ccccn3)n2)c1 [Compound I-22, 5′-isopropoxy-N-(1-methyl-3-(pyridin-2-yl)-1H-pyrazol-4-yl)-[2,3′-bipyridine]-6-carboxamide]		EC50 [1]: 8.56 µM
COCCNc1cncc(-c2cccc(C(=O)Nc3cn(C)nc3-c3ccccn3)n2)c1 [Compound I-31, 5′-((2-methoxyethyl)amino)-N-(1-methyl-3-(pyridin-2-yl)-1H-pyrazol-4-yl)-[2,3′-bipyridine]-6-carboxamide]		EC50 [1]: 0.413 µM
Cn1cc(NC(=O)c2cccc(-c3cncc(C(N)=O)c3)n2)c(-c2ccccn2)n1 [Compound I-40, N6-(1-methyl-3-(pyridin-2-yl)-1H-pyrazol-4-yl)-[2,3′-bipyridine]-5′,6-dicarboxamide]		EC50 [1]: 2.99 µM
Cn1cc(NC(=O)c2cccc(-c3ccccc3)n2)c(-c2ccccn2)n1 [Compound I-48, N-(1-methyl-3-(pyridin-2-yl)-1H-pyrazol-4-yl)-6-phenylpicolinamide]		EC50 [1]: 9.16 µM
Cn1cc(NC(=O)c2cncc(-c3cnn(CC4CC4)c3)c2)c(-c2ccccn2)n1 [Compound I-109, 5-(1-(cyclopropylmethyl)-1H-pyrazol-4-yl)-N-(1-methyl-3-(pyridin-2-yl)-1H-pyrazol-4-yl)nicotinamide]	10.8 µM	
Cn1cc(NC(=O)c2nccc(Nc3cn(C)nc3-c3ccccn3)n2)c(-c2ccccn2)n1 [Compound I-118, N-(1-methyl-3-(pyridin-2-yl)-1H-pyrazol-4-yl)-4-((1-methyl-3-(pyridin-2-yl)-1H-pyrazol-4-yl)amino)pyrimidine-2-carboxamide]	130 µM	
O=C(Nc1cn(C(CO)CO)nc1-c1ccccn1)c1cccc(-c2cccnc2)n1 [Compound I-125, N-(1-(1,3-dihydroxypropan-2-yl)-3-(pyridin-2-yl)-1H-pyrazol-4-yl)-[2,3′-bipyridine]-6-carboxamide]	3.92 µM	
Cc1cncc(-c2cccc(C(=O)Nc3cn(C(CO)CO)nc3-c3ccccn3)n2)c1 [Compound I-126, N-(1-(1,3-dihydroxypropan-2-yl)-3-(pyridin-2-yl)-1H-pyrazol-4-yl)-5′-methyl-[2,3′-bipyridine]-6-carboxamide]	3.35 µM	
O=C(Nc1cn(C(CO)CO)nc1-c1ccccn1)c1cccc(-c2cn[nH]c2)n1 [Compound I-127, N-(1-(1,3-dihydroxypropan-2-yl)-3-(pyridin-2-yl)-1H-pyrazol-4-yl)-6-(1H-pyrazol-4-yl)picolinamide]	18.2 µM	
Cn1cc(NC(=O)c2nccc(Nc3cc[nH]n3)n2)c(-c2ccccn2)n1 [Compound I-128, 4-((1H-pyrazol-3-yl)amino)-N-(1-methyl-3-(pyridin-2-yl)-1H-pyrazol-4-yl)pyrimidine-2-carboxamide]	24.2 µM	
CC(C)Oc1cncc(-c2cccc(C(=O)Nc3cn(C4COC4)nc3-c3ccccn3)n2)c1 [Compound I-130, 5′-isopropoxy-N-(1-(oxetan-3-yl)-3-(pyridin-2-yl)-1H-pyrazol-4-yl)-[2,3′-bipyridine]-6-carboxamide]		EC50 [1]: 1.65 µM
COCCOCCn1cc(NC(=O)c2cccc(Nc3cc(C)ncc3C)n2)c(-c2ccccn2)n1 [Compound I-157, 6-((2,5-dimethylpyridin-4-yl)amino)-N-(1-(2-(2-methoxyethoxy)ethyl)-3-(pyridin-2-yl)-1H-pyrazol-4-yl)picolinamide formate]		EC50 [1]: 10.9 µM
Cc1cncc(-c2cccc(C(=O)Nc3cn(C)nc3-c3ccc(N4CCOCC4)cn3)n2)c1 [Compound I-176, 5′-methyl-N-(1-methyl-3-(5-morpholinopyridin-2-yl)-1H-pyrazol-4-yl)-[2,3′-bipyridine]-6-carboxamide dihydrochloride]		EC50 ([2]; THP-1 cells, dihydrochloride): 27.9 µM

Continued, in another order:

EC50 [2, 3]	Structure (SMILES)	further results
72.9 µM	Cc1n[nH]cc1Nc1ccnc(C(=O)Nc2cn(C)nc2-c2ccccn2)n1 [Compound I-129, 4-((3-methyl-1H-pyrazol-4-yl)amino)-N-(1-methyl-3-(pyridin-2-yl)-1H-pyrazol-4-yl)pyrimidine-2-carboxamide]	
41.7 µM	O=C(O)c1cncc(-c2cccc(C(=O)Nc3cn(C4COC4)nc3-c3ccccn3)n2)c1 [Compound I-135, 6-((1-(oxetan-3-yl)-3-(pyridin-2-yl)-1H-pyrazol-4-yl)carbamoyl)-[2,3′-bipyridine]-5′-carboxylic acid]	
10.9 µM	COCCOCCn1cc(NC(=O)c2cccc(-c3ccncc3)n2)c(-c2ccccn2)n1 [Compound I-140, N-(1-(2-(2-methoxyethoxy)ethyl)-3-(pyridin-2-yl)-1H-pyrazol-4-yl)-[2,4′-bipyridine]-6-carboxamide formate]	
11.5 µM	COCCOCCn1cc(NC(=O)c2cccc(-c3ccncc3F)n2)c(-c2ccccn2)n1 [Compound I-144, 3′-fluoro-N-(1-(2-(2-methoxyethoxy)ethyl)-3-(pyridin-2-yl)-1H-pyrazol-4-yl)-[2,4′-bipyridine]-6-carboxamide formate]	
56.9 µM	COCCOCCn1cc(NC(=O)c2cccc(-c3ccncc3C)n2)c(-c2ccccn2)n1 [Compound I-145, N-(1-(2-(2-methoxyethoxy)ethyl)-3-(pyridin-2-yl)-1H-pyrazol-4-yl)-3′-methyl-[2,4′-bipyridine]-6-carboxamide formate]	
14.7 µM	Cn1cc(NC(=O)c2cccc(-c3ccnc(NCC4CC4)c3)n2)c(-c2ccccn2)n1 [Compound I-159, 2′-((cyclopropylmethyl)amino)-N-(1-methyl-3-(pyridin-2-yl)-1H-pyrazol-4-yl)-[2,4′-bipyridine]-6-carboxamide formate]	
150 µM	Cn1cc(NC(=O)c2cccc(-c3ccncc3)n2)c(-c2ccccn2)n1 [Compound I-160, N-(1-methyl-3-(pyridin-2-yl)-1H-pyrazol-4-yl)-[2,4′-bipyridine]-6-carboxamide 2,2,2-trifluoroacetate]	
1.53 µM	O=C(Nc1cn(C2CCOCC2)nc1-c1ccccn1)c1cccc(-c2cn[nH]c2)n1 [Compound I-165, 6-(1H-pyrazol-4-yl)-N-(3-(pyridin-2-yl)-1-(tetrahydro-2H-pyran-4-yl)-1H-pyrazol-4-yl)picolinamide]	
0.541 µM	COCCn1cc(NC(=O)c2cccc(-c3cncc(C)c3)n2)c(-c2ccccn2)n1 [Compound I-168, N-(1-(2-methoxyethyl)-3-(pyridin-2-yl)-1H-pyrazol-4-yl)-5′-methyl-[2,3′-bipyridine]-6-carboxamide]	
